The results in this text go back to ChEMBL document CHEMBL3102773, “The synthesis and comparative receptor binding affinities of novel, isomeric pyridoindolobenzazepine scaffolds” (Bioorg Med Chem Lett, 2014).

Several values for one entry are separate records, joined by “and”; a condition that tells them apart may be missing. Equal values may be shown once. Where a name gives a salt, the structure may show the parent alone. A value given as a limit tells only on which side of the number the result lay.

Among the targets are Histamine H2 receptor (Homo sapiens, UniProt P25021); D(3) dopamine receptor (Homo sapiens, UniProt P35462); D(1B) dopamine receptor (Homo sapiens, UniProt P21918); Histamine H1 receptor (Homo sapiens, UniProt P35367).
The target of experiment [1] is 5-hydroxytryptamine receptor 2B (Homo sapiens, UniProt P41595).
Description: Displacement of [3H]LSD from 5-HT2B receptor (unknown origin)
Experiment [2] concerns the target T1, Muscarinic acetylcholine receptor M2 (Homo sapiens, UniProt P08172).
T1 sequence (P08172 whole entry): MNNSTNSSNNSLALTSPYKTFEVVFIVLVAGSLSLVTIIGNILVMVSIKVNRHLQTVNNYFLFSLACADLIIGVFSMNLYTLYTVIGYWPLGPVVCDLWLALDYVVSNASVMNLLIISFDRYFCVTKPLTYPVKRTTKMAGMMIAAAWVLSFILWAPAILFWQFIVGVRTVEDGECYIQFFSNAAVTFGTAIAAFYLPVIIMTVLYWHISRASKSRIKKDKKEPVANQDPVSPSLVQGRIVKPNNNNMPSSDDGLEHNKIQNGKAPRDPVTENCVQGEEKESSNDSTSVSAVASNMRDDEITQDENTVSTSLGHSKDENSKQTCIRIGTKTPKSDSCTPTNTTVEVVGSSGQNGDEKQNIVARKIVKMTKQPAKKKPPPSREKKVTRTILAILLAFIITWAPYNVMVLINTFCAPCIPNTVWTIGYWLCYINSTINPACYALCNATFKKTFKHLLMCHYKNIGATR
Briefly: Binding affinity to muscarinic M2 receptor (unknown origin) by radioligand displacement assay. A general note: Displacement assays read how much labelled ligand stays bound in the presence of the test substance.

A further experiment concerns the target Mu-type opioid receptor (Homo sapiens, UniProt P35372). As to the kind of experiment: Binding affinity to mu opioid receptor (unknown origin) by radioligand displacement assay.
Experiment [3] has as its target Delta-type opioid receptor (Homo sapiens, UniProt P41143). As to the kind of experiment: Binding affinity to delta opioid receptor (unknown origin) by radioligand displacement assay.
In a further experiment the target is Histamine H3 receptor (Homo sapiens, UniProt Q9Y5N1). As to the kind of experiment: Binding affinity to histamine H3 receptor (unknown origin) by radioligand displacement assay.
Histamine H3 receptor, sequence (Q9Y5N1 whole entry): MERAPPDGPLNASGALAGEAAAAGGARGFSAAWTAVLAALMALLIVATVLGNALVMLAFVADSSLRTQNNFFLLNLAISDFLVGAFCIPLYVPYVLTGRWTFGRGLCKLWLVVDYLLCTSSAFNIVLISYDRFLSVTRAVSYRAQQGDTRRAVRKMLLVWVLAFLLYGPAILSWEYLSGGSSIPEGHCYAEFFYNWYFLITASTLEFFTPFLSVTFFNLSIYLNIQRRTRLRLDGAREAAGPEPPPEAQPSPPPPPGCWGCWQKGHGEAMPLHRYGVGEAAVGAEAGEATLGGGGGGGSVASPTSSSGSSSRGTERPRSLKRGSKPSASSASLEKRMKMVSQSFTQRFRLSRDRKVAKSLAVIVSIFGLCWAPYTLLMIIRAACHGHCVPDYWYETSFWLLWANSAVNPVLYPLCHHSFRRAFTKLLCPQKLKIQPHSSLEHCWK
Experiment [4] addresses Beta-2 adrenergic receptor (Homo sapiens, UniProt P07550). As to the kind of experiment: Binding affinity to adrenergic beta2 receptor (unknown origin) by radioligand displacement assay.
In experiment [5] the target is Beta-3 adrenergic receptor (Homo sapiens, UniProt P13945). Briefly: Binding affinity to adrenergic beta3 receptor (unknown origin) by radioligand displacement assay.
Beta-3 adrenergic receptor, sequence (P13945 whole entry): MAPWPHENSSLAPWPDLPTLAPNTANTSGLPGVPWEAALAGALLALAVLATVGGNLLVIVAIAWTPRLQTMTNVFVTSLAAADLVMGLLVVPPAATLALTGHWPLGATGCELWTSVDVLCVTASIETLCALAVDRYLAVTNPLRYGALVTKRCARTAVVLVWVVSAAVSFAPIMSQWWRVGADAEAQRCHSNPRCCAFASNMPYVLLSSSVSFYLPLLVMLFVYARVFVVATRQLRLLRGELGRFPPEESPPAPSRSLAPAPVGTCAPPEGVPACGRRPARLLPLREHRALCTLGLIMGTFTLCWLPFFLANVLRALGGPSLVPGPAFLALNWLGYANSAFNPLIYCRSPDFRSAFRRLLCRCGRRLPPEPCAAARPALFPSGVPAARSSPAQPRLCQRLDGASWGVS
Experiment [6] concerns the target Beta-1 adrenergic receptor (Homo sapiens, UniProt P08588). Briefly: Binding affinity to adrenergic beta1 receptor (unknown origin) by radioligand displacement assay.
The target in another experiment is D(1A) dopamine receptor (Homo sapiens, UniProt P21728). Briefly: Binding affinity to dopamine D1 receptor (unknown origin) by radioligand displacement assay.
D(1A) dopamine receptor, sequence (P21728 whole entry): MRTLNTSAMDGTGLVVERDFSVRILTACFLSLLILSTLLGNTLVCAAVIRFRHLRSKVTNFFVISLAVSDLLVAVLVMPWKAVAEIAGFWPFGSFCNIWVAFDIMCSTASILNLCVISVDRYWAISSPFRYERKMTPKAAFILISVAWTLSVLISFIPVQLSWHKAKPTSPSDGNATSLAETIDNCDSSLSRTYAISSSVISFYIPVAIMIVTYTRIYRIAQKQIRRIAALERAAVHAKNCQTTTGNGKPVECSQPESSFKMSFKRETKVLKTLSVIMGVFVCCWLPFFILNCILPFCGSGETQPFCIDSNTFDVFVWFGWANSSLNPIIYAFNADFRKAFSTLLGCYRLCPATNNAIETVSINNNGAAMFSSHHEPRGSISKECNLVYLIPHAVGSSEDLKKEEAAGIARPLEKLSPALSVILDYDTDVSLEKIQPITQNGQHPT
For experiment [7], the target named is Sodium-dependent noradrenaline transporter (Homo sapiens, UniProt P23975). As to the kind of experiment: Displacement of [3H]Nisoxetine from norepinephrine transporter (unknown origin).
Sodium-dependent noradrenaline transporter, sequence (P23975 whole entry): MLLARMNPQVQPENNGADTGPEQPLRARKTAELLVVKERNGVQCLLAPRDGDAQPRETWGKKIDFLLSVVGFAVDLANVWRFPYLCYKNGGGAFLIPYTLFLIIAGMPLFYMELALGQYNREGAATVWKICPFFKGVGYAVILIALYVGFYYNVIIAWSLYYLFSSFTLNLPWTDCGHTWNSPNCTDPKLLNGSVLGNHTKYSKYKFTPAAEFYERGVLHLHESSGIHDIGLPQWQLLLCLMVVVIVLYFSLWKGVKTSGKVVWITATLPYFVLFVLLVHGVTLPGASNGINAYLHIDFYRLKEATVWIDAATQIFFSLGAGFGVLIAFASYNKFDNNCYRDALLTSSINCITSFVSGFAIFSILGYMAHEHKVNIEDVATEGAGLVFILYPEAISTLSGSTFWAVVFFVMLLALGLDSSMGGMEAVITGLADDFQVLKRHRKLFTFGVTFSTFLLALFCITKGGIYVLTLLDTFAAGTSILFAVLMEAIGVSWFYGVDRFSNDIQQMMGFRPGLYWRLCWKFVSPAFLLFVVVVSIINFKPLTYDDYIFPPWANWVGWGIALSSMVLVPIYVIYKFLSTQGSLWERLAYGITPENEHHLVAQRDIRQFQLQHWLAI
Experiment [8] has as its target Sodium-dependent dopamine transporter (Homo sapiens, UniProt Q01959). As to the kind of experiment: Binding affinity to dopamine transporter (unknown origin) by radioligand displacement assay.
In experiment [9] the target is T2, Muscarinic acetylcholine receptor M4 (Homo sapiens, UniProt P08173).
T2 sequence (P08173 whole entry): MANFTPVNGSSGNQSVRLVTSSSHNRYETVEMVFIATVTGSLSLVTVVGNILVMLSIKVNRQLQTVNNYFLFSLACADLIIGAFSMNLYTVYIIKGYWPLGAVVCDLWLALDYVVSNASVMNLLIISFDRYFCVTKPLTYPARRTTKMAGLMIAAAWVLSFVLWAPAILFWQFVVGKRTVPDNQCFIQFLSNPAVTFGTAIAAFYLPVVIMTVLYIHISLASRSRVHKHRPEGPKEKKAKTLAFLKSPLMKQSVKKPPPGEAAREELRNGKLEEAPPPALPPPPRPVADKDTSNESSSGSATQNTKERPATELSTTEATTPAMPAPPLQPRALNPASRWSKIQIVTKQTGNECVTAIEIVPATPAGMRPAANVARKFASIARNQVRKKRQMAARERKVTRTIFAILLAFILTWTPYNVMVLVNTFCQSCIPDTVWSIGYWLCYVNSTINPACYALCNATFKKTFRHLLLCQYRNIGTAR
Briefly: Binding affinity to muscarinic M4 receptor (unknown origin) by radioligand displacement assay.

The target in another experiment is T3, D(4) dopamine receptor (Homo sapiens, UniProt P21917).
T3 sequence (P21917 whole entry): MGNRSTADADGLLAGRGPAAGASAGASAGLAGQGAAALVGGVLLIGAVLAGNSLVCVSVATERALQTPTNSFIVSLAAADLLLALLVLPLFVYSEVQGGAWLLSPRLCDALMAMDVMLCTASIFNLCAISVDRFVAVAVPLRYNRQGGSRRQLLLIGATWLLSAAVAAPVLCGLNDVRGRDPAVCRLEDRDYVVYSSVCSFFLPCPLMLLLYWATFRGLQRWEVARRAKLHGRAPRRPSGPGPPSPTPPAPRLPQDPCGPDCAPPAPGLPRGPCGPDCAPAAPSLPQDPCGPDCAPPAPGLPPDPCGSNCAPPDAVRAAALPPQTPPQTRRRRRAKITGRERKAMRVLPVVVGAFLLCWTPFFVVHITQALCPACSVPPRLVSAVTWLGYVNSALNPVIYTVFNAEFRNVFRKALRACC

In experiment [10] the target is T4, 5-hydroxytryptamine receptor 3A (Homo sapiens, UniProt P46098).
T4 sequence (P46098 whole entry): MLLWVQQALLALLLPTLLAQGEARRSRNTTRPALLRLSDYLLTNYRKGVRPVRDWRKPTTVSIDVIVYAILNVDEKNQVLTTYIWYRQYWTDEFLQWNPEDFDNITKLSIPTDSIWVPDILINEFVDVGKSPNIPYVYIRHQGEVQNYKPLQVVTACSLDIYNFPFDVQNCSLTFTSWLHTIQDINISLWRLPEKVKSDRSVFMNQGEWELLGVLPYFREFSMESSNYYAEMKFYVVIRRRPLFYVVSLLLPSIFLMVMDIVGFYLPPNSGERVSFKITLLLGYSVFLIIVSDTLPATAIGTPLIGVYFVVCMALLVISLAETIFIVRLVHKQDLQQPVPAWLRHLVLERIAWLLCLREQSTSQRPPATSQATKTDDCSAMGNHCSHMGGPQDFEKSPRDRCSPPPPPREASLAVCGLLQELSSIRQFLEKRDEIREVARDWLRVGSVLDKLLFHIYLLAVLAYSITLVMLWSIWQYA
Description: Displacement of [3H]GR65630 from 5-HT3 receptor (unknown origin)

In experiment [11] the target is Muscarinic acetylcholine receptor M3 (Homo sapiens, UniProt P20309).
Description: Displacement of [3H]QNB from muscarinic M3 receptor (unknown origin)
Experiment [12] addresses Muscarinic acetylcholine receptor M1 (Homo sapiens, UniProt P11229).
Description: Displacement of [3H]QNB from muscarinic M1 receptor (unknown origin)
Experiment [13] addresses Kappa-type opioid receptor (Homo sapiens, UniProt P41145). As to the kind of experiment: Displacement of [3H]U69593 from kappa opioid receptor (unknown origin).
For experiment [14], the target named is Sigma non-opioid intracellular receptor 1 (Homo sapiens, UniProt Q99720). As to the kind of experiment: Displacement of [3H](+)Pentazocine from sigma 1 receptor (unknown origin).
Experiment [15] deals with Alpha-1D adrenergic receptor (Homo sapiens, UniProt P25100).
Experiment [16] addresses Alpha-1A adrenergic receptor (Homo sapiens, UniProt P35348).
The target of a further experiment is D(2) dopamine receptor (Homo sapiens, UniProt P14416). Briefly: Displacement of [3H]N-Methylspiperone from dopamine D2 receptor (unknown origin).
In experiment [17] the target is Sodium-dependent serotonin transporter (Homo sapiens, UniProt P31645).
Experiment [18] concerns the target Alpha-1B adrenergic receptor (Homo sapiens, UniProt P35368).
Description: Displacement of [125I]HEAT from adrenergic alpha1B receptor (unknown origin)
For experiment [19], the target named is 5-hydroxytryptamine receptor 5A (Homo sapiens, UniProt P47898).
Description: Displacement of [3H]LSD from 5-HT5A receptor (unknown origin)
The target of experiment [20] is 5-hydroxytryptamine receptor 2C (Homo sapiens, UniProt P28335).
Description: Displacement of [3H]Mesulergine from 5-HT2C receptor (unknown origin)
The target of experiment [21] is 5-hydroxytryptamine receptor 1E (Homo sapiens, UniProt P28566).
Description: Displacement of [3H]5HT from 5-HT1E receptor (unknown origin)
Experiment [22] deals with Muscarinic acetylcholine receptor M5 (Homo sapiens, UniProt P08912).
Description: Displacement of [3H]QNB from muscarinic M5 receptor (unknown origin)
Experiment [23] has as its target Alpha-2B adrenergic receptor (Homo sapiens, UniProt P18089).
Description: Displacement of [125I]Clonidine from adrenergic alpha2B receptor (unknown origin)
Experiment [24] concerns the target 5-hydroxytryptamine receptor 2A (Homo sapiens, UniProt P28223).
Description: Displacement of [3H]Ketanserin from 5-HT2A receptor (unknown origin)
In experiment [25] the target is 5-hydroxytryptamine receptor 1D (Homo sapiens, UniProt P28221). Briefly: Displacement of [3H]5-CT from 5-HT1D receptor (unknown origin).
The target of experiment [26] is 5-hydroxytryptamine receptor 1A (Homo sapiens, UniProt P08908). Briefly: Displacement of [3H]WAY100635 from 5-HT1A receptor (unknown origin).
In experiment [27] the target is Alpha-2C adrenergic receptor (Homo sapiens, UniProt P18825).
Description: Displacement of [125I]Clonidine from adrenergic alpha2C receptor (unknown origin)
Experiment [28] addresses Alpha-2A adrenergic receptor (Homo sapiens, UniProt P08913).
Description: Displacement of [125I]Clonidine from adrenergic alpha2A receptor (unknown origin)
Experiment [29] has as its target 5-hydroxytryptamine receptor 6 (Homo sapiens, UniProt P50406).
Description: Displacement of [3H]LSD from 5-HT6 receptor (unknown origin)
Experiment [30] concerns the target 5-hydroxytryptamine receptor 7 (Homo sapiens, UniProt P34969).
Description: Displacement of [3H]LSD from 5-HT7 receptor (unknown origin)
The target in experiment [31] is 5-hydroxytryptamine receptor 1B (Homo sapiens, UniProt P28222).
Description: Displacement of [3H]5-CT from 5-HT1B receptor (unknown origin)

Histamine H2 receptor, sequence (P25021 whole entry): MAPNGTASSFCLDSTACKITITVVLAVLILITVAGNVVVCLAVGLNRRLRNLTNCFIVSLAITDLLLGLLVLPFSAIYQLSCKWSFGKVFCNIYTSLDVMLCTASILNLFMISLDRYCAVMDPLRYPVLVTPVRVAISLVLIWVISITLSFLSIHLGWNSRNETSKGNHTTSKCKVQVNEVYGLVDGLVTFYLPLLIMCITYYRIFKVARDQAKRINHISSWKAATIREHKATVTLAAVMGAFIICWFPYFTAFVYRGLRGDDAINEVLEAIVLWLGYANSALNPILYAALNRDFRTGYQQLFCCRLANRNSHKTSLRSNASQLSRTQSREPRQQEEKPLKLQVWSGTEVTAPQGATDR
Beta-1 adrenergic receptor, sequence (P08588 whole entry): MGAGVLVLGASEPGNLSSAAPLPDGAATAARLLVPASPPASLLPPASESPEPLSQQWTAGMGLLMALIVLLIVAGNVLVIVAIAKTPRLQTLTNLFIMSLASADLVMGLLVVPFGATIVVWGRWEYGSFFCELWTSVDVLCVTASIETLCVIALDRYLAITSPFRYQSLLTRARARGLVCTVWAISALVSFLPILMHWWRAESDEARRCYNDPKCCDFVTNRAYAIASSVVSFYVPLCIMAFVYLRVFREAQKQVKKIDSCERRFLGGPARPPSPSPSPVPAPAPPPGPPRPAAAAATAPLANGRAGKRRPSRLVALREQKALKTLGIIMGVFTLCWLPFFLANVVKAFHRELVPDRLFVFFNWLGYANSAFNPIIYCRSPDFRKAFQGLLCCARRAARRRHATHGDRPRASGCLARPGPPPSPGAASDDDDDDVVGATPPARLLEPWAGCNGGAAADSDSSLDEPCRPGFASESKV
Sodium-dependent dopamine transporter, sequence (Q01959 whole entry): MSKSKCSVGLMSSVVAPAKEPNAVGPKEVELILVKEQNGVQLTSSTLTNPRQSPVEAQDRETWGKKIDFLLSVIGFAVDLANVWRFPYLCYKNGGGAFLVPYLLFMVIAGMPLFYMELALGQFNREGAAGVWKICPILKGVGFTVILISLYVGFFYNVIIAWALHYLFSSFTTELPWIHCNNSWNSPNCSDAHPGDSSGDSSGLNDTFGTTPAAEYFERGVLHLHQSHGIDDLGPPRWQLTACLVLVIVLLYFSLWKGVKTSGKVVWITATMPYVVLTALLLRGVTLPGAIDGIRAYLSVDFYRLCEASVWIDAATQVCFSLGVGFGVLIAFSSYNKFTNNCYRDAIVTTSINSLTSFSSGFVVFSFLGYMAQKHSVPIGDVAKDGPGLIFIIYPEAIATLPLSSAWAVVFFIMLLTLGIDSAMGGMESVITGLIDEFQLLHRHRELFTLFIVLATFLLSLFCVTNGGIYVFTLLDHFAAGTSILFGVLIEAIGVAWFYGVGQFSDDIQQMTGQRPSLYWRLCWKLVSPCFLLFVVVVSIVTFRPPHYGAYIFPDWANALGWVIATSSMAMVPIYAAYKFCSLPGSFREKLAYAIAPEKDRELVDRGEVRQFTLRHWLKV
Beta-2 adrenergic receptor, sequence (P07550 whole entry): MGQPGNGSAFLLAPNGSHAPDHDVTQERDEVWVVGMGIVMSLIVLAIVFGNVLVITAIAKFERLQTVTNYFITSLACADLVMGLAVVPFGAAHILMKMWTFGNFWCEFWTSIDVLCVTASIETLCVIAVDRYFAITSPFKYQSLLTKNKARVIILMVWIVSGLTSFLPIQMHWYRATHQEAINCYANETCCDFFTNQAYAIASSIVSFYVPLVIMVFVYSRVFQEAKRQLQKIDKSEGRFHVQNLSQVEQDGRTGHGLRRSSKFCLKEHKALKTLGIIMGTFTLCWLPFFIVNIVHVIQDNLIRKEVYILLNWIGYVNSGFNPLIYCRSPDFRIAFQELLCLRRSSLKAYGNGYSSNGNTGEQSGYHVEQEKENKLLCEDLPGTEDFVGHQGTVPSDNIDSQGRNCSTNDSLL
Delta-type opioid receptor, sequence (P41143 whole entry): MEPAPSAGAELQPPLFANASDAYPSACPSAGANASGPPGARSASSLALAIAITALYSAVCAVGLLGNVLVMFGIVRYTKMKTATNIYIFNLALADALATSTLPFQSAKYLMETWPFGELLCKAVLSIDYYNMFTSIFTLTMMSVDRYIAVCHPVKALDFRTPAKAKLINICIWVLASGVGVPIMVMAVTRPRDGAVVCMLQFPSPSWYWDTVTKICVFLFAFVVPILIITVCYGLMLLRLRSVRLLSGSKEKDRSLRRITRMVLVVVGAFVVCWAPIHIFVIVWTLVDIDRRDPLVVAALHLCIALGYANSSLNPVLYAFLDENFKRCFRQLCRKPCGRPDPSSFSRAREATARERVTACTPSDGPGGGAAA
Mu-type opioid receptor, sequence (P35372 whole entry): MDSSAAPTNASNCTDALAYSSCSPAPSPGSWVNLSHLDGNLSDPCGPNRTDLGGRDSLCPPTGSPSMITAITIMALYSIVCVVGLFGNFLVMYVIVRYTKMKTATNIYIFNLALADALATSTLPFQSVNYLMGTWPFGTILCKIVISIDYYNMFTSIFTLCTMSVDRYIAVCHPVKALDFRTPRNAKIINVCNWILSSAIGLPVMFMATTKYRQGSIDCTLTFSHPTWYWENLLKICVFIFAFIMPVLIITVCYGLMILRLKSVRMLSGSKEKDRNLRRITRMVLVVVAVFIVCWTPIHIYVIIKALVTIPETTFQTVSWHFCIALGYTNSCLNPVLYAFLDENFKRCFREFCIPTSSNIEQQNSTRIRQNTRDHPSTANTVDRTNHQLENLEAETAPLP
D(3) dopamine receptor, sequence (P35462 whole entry): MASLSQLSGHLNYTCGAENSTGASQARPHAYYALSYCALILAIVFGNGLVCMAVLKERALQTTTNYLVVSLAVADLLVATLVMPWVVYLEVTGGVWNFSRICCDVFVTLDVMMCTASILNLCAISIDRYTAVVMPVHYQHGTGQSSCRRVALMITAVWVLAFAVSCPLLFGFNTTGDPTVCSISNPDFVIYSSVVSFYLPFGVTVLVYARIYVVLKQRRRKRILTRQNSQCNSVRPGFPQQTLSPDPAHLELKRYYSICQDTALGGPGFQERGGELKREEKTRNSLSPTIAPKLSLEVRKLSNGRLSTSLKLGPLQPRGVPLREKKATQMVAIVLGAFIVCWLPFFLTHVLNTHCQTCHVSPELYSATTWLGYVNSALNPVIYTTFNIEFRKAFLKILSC
Description for D(1B) dopamine receptor: Displacement of [3H]SCH23390 from dopamine D5 receptor (unknown origin)
Description for D(3) dopamine receptor: Displacement of [3H]N-Methylspiperone from dopamine D3 receptor (unknown origin)
Description for D(4) dopamine receptor: Displacement of [3H]N-Methylspiperone from dopamine D4 receptor (unknown origin)
Description for Histamine H1 receptor: Displacement of [3H]Pyrilamine from histamine H1 receptor (unknown origin)

In [1], `Cn1ccc2cc3c(cc21)CCN3C(=O)Nc1cccnc1` displayed a Ki of 0.012 µM.

With `CN1CC2c3ccccc3Oc3ccc(Cl)cc3C2C1` (centres undefined) [ASENAPINE MALEATE], the Ki at Histamine H2 receptor amounted to 0.0057 µM.

Consider `CN1CCc2c(c3cccc4c3n2-c2ccccc2CC4)C1`, for which the Ki (in experiment [2]; on Mu-type opioid receptor; in [3]; on Histamine H3 receptor; in [4]; in [5]) was more than 10 µM in each case. Also, the Ki (in experiment [6]; at D(1A) dopamine receptor; in experiment [7] (read-out: pKi (converted)); in experiment [8]; in experiment [9]; on D(4) dopamine receptor) was more than 10 µM in each case. The Ki (at D(3) dopamine receptor; in experiment [10]) was more than 10 µM in each case.

For `CN1CCc2c(c3cccc4c3n2Cc2ccccc2C4)C1`, the Ki (in experiment [2]; in experiment [11]; in experiment [12]; on Mu-type opioid receptor; in experiment [3]; in experiment [13]) was more than 10 µM in each case. Besides, the Ki (on Histamine H3 receptor; in [14] (read-out: pKi (converted)); in [4]; in [5]; in [6]; in experiment [15] (read-out: pKi (converted))) was more than 10 µM throughout. The Ki in experiment [16] (read-out: pKi (converted)) is more than 10 µM; at D(2) dopamine receptor, more than 10 µM; on D(1A) dopamine receptor it was more than 10 µM; in experiment [17] (read-out: pKi (converted)) it was more than 10 µM; in experiment [7] (read-out: Ki), 1.35 µM; in experiment [8], more than 10 µM. Further, the Ki (in [9]; on Histamine H2 receptor; in experiment [18]; at D(1B) dopamine receptor; at D(4) dopamine receptor; in experiment [10]) was more than 10 µM in each case. Further, the Ki in experiment [19], in experiment [20], in experiment [21] and in experiment [22] was more than 10 µM in each case.

Regarding `CN1CCc2c(c3cccc4c3n2CCc2ccccc2-4)C1`, the Ki (in [2]; in [11]; in experiment [12]; on Mu-type opioid receptor; in experiment [3]; in [13]) was more than 10 µM each time. The Ki on Histamine H3 receptor was more than 10 µM; in experiment [14] (read-out: Ki), 0.22 µM; on Histamine H1 receptor it was more than 10 µM; in [4], more than 10 µM; in experiment [5], more than 10 µM; in experiment [6] it was more than 10 µM. In addition, the Ki in [23] was 4.35 µM; in experiment [15] (read-out: Ki) it was 0.293 µM; in [16] (read-out: Ki), 0.286 µM; at D(2) dopamine receptor, more than 10 µM; at D(1A) dopamine receptor, more than 10 µM; in experiment [24] it was 0.257 µM. Further, the Ki in experiment [25] was 0.625 µM; in experiment [26], more than 10 µM; in [17] (read-out: Ki), 0.413 µM; in experiment [7] (read-out: Ki), 1.95 µM; in [8], more than 10 µM; in experiment [9], more than 10 µM. In addition, the Ki on Histamine H2 receptor was 0.943 µM; in experiment [27] it was 0.446 µM; in [28], 0.407 µM; in experiment [18], 2.24 µM; at D(1B) dopamine receptor it was more than 10 µM; on D(4) dopamine receptor, 1.38 µM and 1.23 µM. Moreover, the Ki at D(3) dopamine receptor was more than 10 µM; in experiment [29], more than 10 µM; in experiment [30] it was 0.195 µM; in [10], 0.529 µM; in [19] it was more than 10 µM; in [20] it was more than 10 µM. In addition, the Ki is 0.104 µM in experiment [1], more than 10 µM in experiment [21], 1.22 µM in [31] and more than 10 µM in experiment [22].
